The experiment has as its target T1, NK3 receptor (Homo sapiens, UniProt P29371).
T1 construct: expressed in transfected cells; host or cells: CHO cell lines (plasma membranes)
T1 sequence (P29371 1-465): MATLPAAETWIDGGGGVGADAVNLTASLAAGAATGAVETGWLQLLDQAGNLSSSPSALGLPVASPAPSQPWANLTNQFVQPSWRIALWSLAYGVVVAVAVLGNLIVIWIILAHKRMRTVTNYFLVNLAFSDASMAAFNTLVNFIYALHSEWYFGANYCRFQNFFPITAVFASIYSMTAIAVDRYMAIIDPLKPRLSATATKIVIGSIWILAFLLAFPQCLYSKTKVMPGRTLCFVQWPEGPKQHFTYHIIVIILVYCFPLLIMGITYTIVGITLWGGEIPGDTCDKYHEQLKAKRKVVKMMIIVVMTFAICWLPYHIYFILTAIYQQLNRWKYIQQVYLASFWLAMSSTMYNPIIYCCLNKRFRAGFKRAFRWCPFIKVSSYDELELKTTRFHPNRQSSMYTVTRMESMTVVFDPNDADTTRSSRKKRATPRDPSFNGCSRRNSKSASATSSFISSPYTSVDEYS
Briefly: NK3 binding affinity, scintillation proximity assay (SPA), 125I [MePhe7]-NKB. To be noted: membranes from CHO cell lines expressing NK3 receptors; radioligand 125I [MePhe7]-NKB. As to the method:
a) Measurement of NK3 Binding Affinity
The NK3 binding affinity of the compounds of the invention was determined using the following scintillation proximity assay (SPA) (see H. M. Sarau et al, J. Pharmacol. Experimental Therapeutics 1997, 281(3), 1303-1311; H. M. Sarau et al, J. Pharmacol. Experimental Therapeutics 2000, 295(1), 373-381; G. A. M. Giardina et al J. Med. Chem 1999, 42, 1053-1065). Polystyrene Leadseeker WGA-SPA beads (Amersham Biosciences) were mixed with plasma membrane prepared from CHO cell lines expressing NK3 receptors in a bead/membrane ratio of 20:1 (w/w) in assay buffer (75 mM Tris pH 7.8, 75mM NaCl, 4 mM MnCl2, 1 mM EDTA, 0.05% Chaps, 1 mM PMSF). The mixture was placed on ice for 20 minutes to allow the formation of membrane/bead complex before BSA was added to a final concentration of 1%. After another 20 minutes incubation on ice, the bead/membrane complex was washed twice and suspended in assay buffer. ^125I [MePhe7]-NKB was then added to the bead/membrane complex. […] After 2-3 hours incubation at room temperature with shaking, the plates were spun for 2 min at 1100 rpm and measured in Viewlux imager (PerkinElmer) for 5 minutes with a 618-nm filter. Inhibition of the radioactive ligand binding to the NK3 receptor was measured by the reduction of signal. pKi was calculated using Kd of the radioactive ligand determined in a separate experiment.

pKi: −log10 of the molar value.

For `O=C(N[C@H](c1cccc(F)c1)C1CC1)c1c(CN2CCCC2=O)c(-c2ccccc2)nc2ccccc12` [Example 1, N-[(S)-Cyclopropyl(3-fluorophenyl)methyl]-3-[(2-oxo-1-pyrrolidinyl)methyl]-2-phenyl-4-quinolinecarboxamide], the pKi was 8.50.

These data come from US20080103173A1, “Compounds Having Activity At Nk3 Receptor And Uses Thereof In Medicine” (SMITHKLINE BEECHAM CORPORATION, priority 2004, published 2008).
